{"source": "paper PMC2613833", "about": "(Bioorganic & medicinal chemistry, 2008)", "key": {"[1]": {"target": "T1, estrogen receptor α (ERα) (Homo sapiens, UniProt P03372)", "T1 sequence (P03372 1-595)": "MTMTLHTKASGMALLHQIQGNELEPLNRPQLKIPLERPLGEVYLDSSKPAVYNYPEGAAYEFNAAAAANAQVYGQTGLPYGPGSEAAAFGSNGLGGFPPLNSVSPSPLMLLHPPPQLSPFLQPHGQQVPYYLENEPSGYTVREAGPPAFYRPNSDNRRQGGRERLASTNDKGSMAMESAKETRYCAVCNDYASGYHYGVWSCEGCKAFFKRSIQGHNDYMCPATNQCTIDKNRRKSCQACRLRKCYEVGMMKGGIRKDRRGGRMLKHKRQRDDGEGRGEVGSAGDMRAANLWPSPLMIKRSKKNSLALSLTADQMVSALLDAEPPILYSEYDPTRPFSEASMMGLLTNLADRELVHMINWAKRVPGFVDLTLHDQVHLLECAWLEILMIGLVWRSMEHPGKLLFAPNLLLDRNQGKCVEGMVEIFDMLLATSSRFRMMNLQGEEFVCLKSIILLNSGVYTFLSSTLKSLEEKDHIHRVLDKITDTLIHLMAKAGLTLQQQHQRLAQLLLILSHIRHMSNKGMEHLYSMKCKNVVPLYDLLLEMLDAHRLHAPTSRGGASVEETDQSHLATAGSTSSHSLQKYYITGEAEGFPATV", "test": "Luciferase reporter gene assay", "type": "cell-based", "conditions": "for IC50: HEC-1 cells, full-length ERα, 1 nM estradiol, 24 h"}, "[2]": {"target": "T2, recombinant estrogen receptor ligand binding domain / fluorescein-labeled SRC peptide (Homo sapiens, UniProt P03372)", "T2 sequence (P03372 311-547 limits assumed)": "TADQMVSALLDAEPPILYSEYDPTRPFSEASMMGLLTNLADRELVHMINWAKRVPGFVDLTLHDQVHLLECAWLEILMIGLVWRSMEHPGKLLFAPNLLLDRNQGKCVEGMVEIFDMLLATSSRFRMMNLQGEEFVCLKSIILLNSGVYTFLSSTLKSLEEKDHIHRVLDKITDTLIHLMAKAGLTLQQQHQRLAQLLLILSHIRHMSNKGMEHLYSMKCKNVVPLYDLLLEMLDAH", "test": "Fluorescence polarization assay of ER/coactivator interaction", "conditions": "1 μM estradiol, Figure 1"}, "[3]": {"target": "T3, Gal4-SRC-1NRD / ERαDEF-VP16 (Homo sapiens, UniProt P03372)", "T3 sequence (P03372 264-595 limits assumed)": "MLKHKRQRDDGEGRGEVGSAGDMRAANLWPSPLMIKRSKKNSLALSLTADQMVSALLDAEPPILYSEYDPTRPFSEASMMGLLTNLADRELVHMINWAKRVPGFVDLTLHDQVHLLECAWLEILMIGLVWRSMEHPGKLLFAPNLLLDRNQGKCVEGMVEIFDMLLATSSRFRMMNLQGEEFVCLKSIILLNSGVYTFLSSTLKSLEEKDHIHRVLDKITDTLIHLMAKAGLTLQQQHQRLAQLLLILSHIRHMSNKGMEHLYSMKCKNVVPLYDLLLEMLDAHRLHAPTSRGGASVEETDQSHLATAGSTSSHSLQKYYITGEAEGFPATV", "test": "Mammalian two hybrid", "type": "cell-based", "conditions": "read-out: IC50, CBI inhibition in the M2H assay; HEC-1 cells, 1 nM estradiol, 24 h"}, "ERα": {"target": "T4, ERα (Homo sapiens, UniProt P03372)", "T4 sequence (P03372 1-595)": "T1 sequence (P03372 1-595)", "test": "Covalent attachment test, ESI mass spectrometry of ER after incubation", "conditions": "30 min at 4 °C in phosphate-buffered saline, dialysis overnight, low-res ESI"}, "ER": {"tested_on": "ER", "conditions": "read-out: IC50, CBI activity against ER; mammalian two-hybrid (M2H) assay; cited from earlier work"}, "[4]": {"tested_on": "ER transactivation in human breast cancer MCF-7 cells", "conditions": "cited from earlier work"}, "[5]": {"conditions": "IC50, CBI inhibition of reporter gene activity"}, "[6]": {"conditions": "read-out: IC50, CBI inhibition of reporter gene activity"}}, "note": "Where a name gives a salt, the structure may show the parent alone. Read-outs that look alike come from different tables or passages of the source.", "data": [{"molecule": "N=C(N)N/N=C/C1=C(C(F)(F)F)c2ccccc2CC1", "note": "[compound 27, 1-(1,1,1,-Trifluoromethyl)-3,4-dihydronaphthalene-2-carboxaldehyde aminoguanylhydrazone HCl]", "values": [{"measurement": "IC50", "setting": "[1]; [5]", "value": 12, "unit": "µM"}]}, {"molecule": "N=C(N)N/N=C/C1=C(Cl)c2ccccc2CCC1", "note": "[compound 23, 9-Chloro-6,7-dihydro-5-benzocycloheptene-8-carboxaldehyde aminoguanylhydrazone HCl]", "values": [{"measurement": "IC50", "setting": "[1]; [5]", "value": "3.3 ± 0.8", "unit": "µM"}, {"measurement": "inhibition of ER/coactivator interaction", "setting": "[2]", "value": "Dose-dependent inhibition"}]}, {"molecule": "1-(1-Chloro-3,4-dihydro-naphthalen-2-yl)-ethanone aminoguanylhydrazone HCl [compound 33]", "values": [{"measurement": "IC50", "setting": "[1]; [6]", "value": "≥ 50", "unit": "µM"}]}, {"molecule": "COC1=C(/C=N/NC(=N)N)CCc2ccccc21", "note": "[compound 25, 1-Methoxy-3,4-dihydronaphthalene-2-carboxaldehyde aminoguanylhydrazone HCl]", "values": [{"measurement": "IC50", "setting": "[1]; [5]", "value": "3.1 ± 0.8", "unit": "µM"}]}, {"molecule": "Cc1cc(C)c2c(c1)C(Cl)=C(/C=N/NC(=N)N)CC2", "note": "[compound 20, 1-Chloro-5,7-dimethyl-3,4-dihydronaphthalene-2-carboxaldehyde aminoguanylhydrazone HCl]", "values": [{"measurement": "IC50", "setting": "[1]; [5]", "value": "1.2 ± 0.1", "unit": "µM"}]}, {"molecule": "CC1CC(/C=N/NC(=N)N)=C(Cl)c2ccccc21", "note": "(centres unmarked) [compound 21, 1-Chloro-3-dihydro-4-methylnaphthalene-2-carboxaldehyde aminoguanylhydrazone HCl]", "values": [{"measurement": "IC50", "setting": "[1]; [5]", "value": 1.5, "unit": "µM"}]}, {"molecule": "N=C(N)N/N=C/c1cccc2ccccc12", "note": "[compound 31, 2-(1-Naphthalenylmethylene) hydrazinecarboximidamide HCl]", "values": [{"measurement": "IC50", "setting": "[1]; [5]", "value": 7.5, "unit": "µM"}]}, {"molecule": "3-Chloro-3-naphthalen-1-yl-propenal aminoguanylhydrazone HCl [compound 30]", "values": [{"measurement": "IC50", "setting": "[1]; [6]", "value": "≥ 50", "unit": "µM"}, {"measurement": "IC50", "setting": "[3]", "value": "≥ 50", "unit": "µM"}]}, {"molecule": "N=C(N)N/N=C/C1=C(Br)c2ccccc2CC1", "note": "[compound 24, 1-Bromo-3,4-dihydronaphthalene-2-carboxaldehyde aminoguanylhydrazone HCl]", "values": [{"measurement": "IC50", "setting": "[1]; [5]", "value": "7.8 ± 0.1", "unit": "µM"}]}, {"molecule": "hydroxytamoxifen [reference compound]", "values": [{"measurement": "increase in IC50 with a 100-fold higher estradiol concentration", "setting": "[1]; reporter gene assay, 1 nM vs 100 nM estradiol, Figure 4b", "value": 100, "unit": "fold"}]}, {"molecule": "N=C(N)N/N=C/C1=C(Oc2ccccc2)c2ccccc2CC1", "note": "[compound 26, 1-Phenoxy-3,4-dihydronaphthalene-2-carboxaldehyde aminoguanylhydrazone HCl]", "values": [{"measurement": "IC50", "setting": "[1]; [5]", "value": "3.5 ± 1.1", "unit": "µM"}]}, {"molecule": "N=C(N)N/N=C/c1ccc2ccccc2c1", "note": "[compound 32, 2-(2-Naphthalenylmethylene)hydrazinecarboximidamide HCl]", "values": [{"measurement": "IC50", "setting": "[1]; [5]", "value": "7.5 ± 0.5", "unit": "µM"}]}, {"molecule": "N=C(N)N/N=C/C1=C(Cl)c2ccccc2CC1", "note": "[compound 1, 1-Chloro-3,4-dihydronaphthalene-2-carboxaldehyde aminoguanylhydrazone HCl]", "values": [{"measurement": "change in molecular weight of ER (covalent attachment)", "setting": "ERα", "value": "no change in molecular weight was observed"}, {"measurement": "IC50", "setting": "ER", "value": 5.5, "unit": "µM"}, {"measurement": "inhibition of ER/coactivator interaction", "setting": "[2]", "value": "Dose-dependent inhibition"}, {"measurement": "ER transactivation", "setting": "[4]", "value": "inhibited ER transactivation"}]}, {"molecule": "CC(/C=N/NC(=N)N)=C(/Cl)c1ccccc1", "note": "[compound 29, β-Chloro-α-methylcinnamaldehyde aminoguanylhydrazone HCl]", "values": [{"measurement": "IC50", "setting": "[1]; [5]", "value": "1.4 ± 0.4", "unit": "µM"}, {"measurement": "inhibition of ER/coactivator interaction", "setting": "[2]", "value": "Dose-dependent inhibition"}]}]}
